These results are taken from patent publication US20240180908A1, “TREATMENT OF KIDNEY DISEASES” (ACLIPSE ONE, INC., priority 2021, published 2024).

Data set [1] relates to human podocyte cell line (CIHP-1). The data set can be described thus: PAN-injury podocyte viability assay (Cell Titer-Glo). Type of data set: cell-based. The following applies: for CIHP-1 proliferation by CTG, percentage compared to DMSO control (without PAN): 4 h pretreatment. The text has this:
(§1) Cell Culture. The human podocyte cell line (CIHP-1) is a […] isolated from human kidney. Podocytes are highly specialized, terminally differentiated cells with a complex cellular structure. They are a critical component of glomerular filtration. Cell cycle control, growth arrest and differentiation are key to the in vivo biology of podocytes. The conditionally immortalized podocyte cell line allows an in vitro process of maturation analogous to the development and maturation of podocytes in vivo. […] These include the novel podocyte proteins nephrin, podocin, CD2AP and synaptopodin. This robust cell line is extensively characterized and validated.
(§2) The growth medium of CIHP-1 cells (Ximbio) was RPMI 1640 with 10% fetal bovine serum (FBS), 1-fold of ITS (insulin-transferrin-selenium), and 1-fold Pen/Strep. The culture condition was 33° C. with 5% CO2. The cell detachment solution was Accutase® for 5 min at 33° C. The cell line passage ration was 1:3 every 3 or 4 days.
(§3) PAN-injury podocyte viability assay. Differentiated podocytes were either pretreated with dimethyl sulfoxide (DMSO) as vehicle, lobeglitazone, pioglitazone, rosiglitazone, or dexamethasone followed by puromycin aminonucleoside (PAN) treatment (5 μg/ml). Viability assays were performed after 3 or 5 days of treatments. […] For compound treatment, compounds were diluted to 20, 2, 0.2, 0.02 and 0.002 mM with DMSO. A volume of 1.8 μL of compounds was taken to 358.2 μL of culture medium and mixed. Media from plates were aspirated. A volume of 100 μL compound-added medium was added to each plate. Plates were placed in the incubator for 4 hours.
(§4) On day 0, CIHP-1 cells were seeded into two 96-well white plates using 5000 cell/well for 3 days (plate 1) or 2500 cell/well for 5 days (plate 2) treatment.
(§5) For compound treatment on Day 1, culture medium was aspirated. For each cell plate, 100 μl/well fresh medium with compounds was added for 4 hour. DMSO was used as control. After compound treatment for 4 hours, PAN was added to a final concentration of 5 μg/ml. No PAN treatment was used for the negative control. There was no medium change for the whole process.
(§6) On Day 4, for the first plate, Cell Titer-Glo (CTG) assay was used by adding 60 μl of CTG reagent into each well of the first plate, incubating at room temperature with shaking for 20 min, and then reading by the EnVision plate reader.
(§7) On Day 6, for the second plate, CTG assay was used by adding 60 μl of CTG reagent into each well of the second plate, incubating at RT with shaking for 20 min, and then reading by the EnVision plate reader.

Assay in data set [2]: as above
It counts as cell-based, human. To be noted: human, no test compound, read-out: podocyte viability compared with untreated cells.
From the text: as §1, §2, §3, §4, §5, §6, §7

Where [3] appears, read: compound 0.01 μM, PAN 5 μg/ml 3-day treatment.
Setting [4] is: compound 0.01 μM, PAN 5 μg/ml 5-day treatment.
The mark [5] stands for this setting: compound 0.1 μM, PAN 5 μg/ml 3-day treatment.
Where [6] appears, read: compound 0.1 μM, PAN 5 μg/ml 5-day treatment.
Setting [7] is: compound 1 μM, PAN 5 μg/ml 3-day treatment.
The mark [8] stands for this setting: compound 1 μM, PAN 5 μg/ml 5-day treatment.
Setting [9] is: compound 10 μM, PAN 5 μg/ml 3-day treatment.
[10] abbreviates: compound 10 μM, PAN 5 μg/ml 5-day treatment.
Setting [11] is: compound 100 μM, PAN 5 μg/ml 3-day treatment.
Where [12] appears, read: compound 100 μM, PAN 5 μg/ml 5-day treatment.

Take `CN(CCOc1ccc(CC2SC(=O)NC2=O)cc1)c1ccccn1` (centres unmarked) [rosiglitazone]: the “CIHP-1 proliferation by CTG, percentage compared to DMSO control (without PAN)” value in data set [1] (setting [3]) came to 72.4%; in data set [1] (setting [4]) it was 32.6%; in data set [1] (setting [5]), 76.0%; in data set [1] (setting [6]), 32.7%; in data set [1] (setting [7]) it was 74.5%; in data set [1] (setting [8]), 33.6%. Also, the “CIHP-1 proliferation by CTG, percentage compared to DMSO control (without PAN)” value is reported as 69.2% in data set [1] (setting [9]), 29.1% in data set [1] (setting [10]), 69.6% in data set [1] (setting [11]) and 15.0% in data set [1] (setting [12]).

Take `COc1ccc(Oc2cc(N(C)CCOc3ccc(CC4SC(=O)NC4=O)cc3)ncn2)cc1` (centres unmarked) [lobeglitazone, 5-(4-(2-((6-(4-Methoxyphenoxy)pyrimidin-4-yl)(methyl)amino)ethoxy)benzyl) thiazolidine-2,4-dione]: the “protection to PAN-injured podocytes” value in data set [1] (0.01 to 100 μM, 3 days of PAN exposure) was “significant protection”. The “improvement of podocyte viability” value in data set [1] (0.01 to 100 μM, after 5 days of PAN injury) is on record as “did not show significant improvement”. For the same molecule, the “CIHP-1 proliferation by CTG, percentage compared to DMSO control (without PAN)” value in data set [1] (setting [3]) was found to be 102.7%; in data set [1] (setting [4]) it was 31.0%; in data set [1] (setting [5]), 99.9%; in data set [1] (setting [6]) it was 33.0%; in data set [1] (setting [7]) it was 103.3%; in data set [1] (setting [8]) it was 32.8%. For the same molecule, the “CIHP-1 proliferation by CTG, percentage compared to DMSO control (without PAN)” value in data set [1] (setting [9]) was determined as 105%; in data set [1] (setting [10]), 33.7%; in data set [1] (setting [11]), 19.9%; in data set [1] (setting [12]), 6.2%. Besides, in data set [1] (human, 3 days), the “concentration at which toxicity to the podocyte cells was observed” value came out at 100 µM.

Take `CCc1ccc(CCOc2ccc(CC3SC(=O)NC3=O)cc2)nc1` (centres unmarked) [pioglitazone]: the “CIHP-1 proliferation by CTG, percentage compared to DMSO control (without PAN)” value in data set [1] (setting [3]) worked out at 102.4%; in data set [1] (setting [4]) it was 35.2%; in data set [1] (setting [5]) it was 101.3%; in data set [1] (setting [6]), 38.3%; in data set [1] (setting [7]) it was 97.3%; in data set [1] (setting [8]), 30.0%. In addition, the “CIHP-1 proliferation by CTG, percentage compared to DMSO control (without PAN)” value in data set [1] (setting [9]) is 94.3%; in data set [1] (setting [10]), 33.4%; in data set [1] (setting [11]), 90.9%; in data set [1] (setting [12]), 22.4%.

Consider `CN(C)c1ncnc2c1ncn2[C@@H]1O[C@H](CO)[C@@H](N)[C@H]1O` [PAN, puromycin aminonucleoside], for which the viability – broadly, a per cent measure of how many cells are alive, often set against a control – at 3 days, 5 μg/ml in data set [2] (5 μg/ml PAN for 3 days) was 70 to 80%. Further, in data set [2] (5 μg/ml PAN for 5 days), the viability at 5 days, 5 μg/ml is 30 to 40%.

In the case of `C[C@@H]1C[C@H]2[C@@H]3CCC4=CC(=O)C=C[C@]4(C)[C@@]3(F)[C@@H](O)C[C@]2(C)[C@@]1(O)C(=O)CO` [dexamethasone], the “CIHP-1 proliferation by CTG, percentage compared to DMSO control (without PAN)” value in data set [1] (setting [5]) stood at 79.9%; in data set [1] (setting [6]), 34.2%; in data set [1] (setting [7]) it was 73.9%; in data set [1] (setting [8]) it was 34.9%; in data set [1] (setting [9]) it was 74.7%; in data set [1] (setting [10]), 33.6%.
